Where two headings read alike, the source gives them in different places.
Assays:
[1] = target: T1, rat metabotropic glutamate receptor 5 (rmGluR5) (Rattus norvegicus, UniProt P31424); experiment: Calcium mobilization (FLIPR) assay for negative allosteric modulation, EC80 glutamate, rmGluR5 in HEK 293; type: cell-based; details: HEK293; rmGluR5, inhibition of EC80 glutamate response; read-out: FLIPR maximum inhibition
T1 construct: expressed in transfected cells
Summary of the method: (§1)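 Stably transfected HEK 293 cells, Fluo-4-loaded, stimulated with EC80 glutamate plus test compound in HBSS/20 mM HEPES pH 7.4 with probenecid; FLIPR fluorescence read over 3 min at room temperature. Basal-subtracted maximum fluorescence change fitted by Hill equation; negative modulation seen as concentration-dependent inhibition of the EC80 response.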

male CD1 mice = experiment: Mouse marble burying (mMB) assay; type: in vivo; details: 30 mpk (sc), FIG. 1
Text: More specifically for the mMB testing, adult, male CD1 mice (Charles River Laboratories (Kingston, N.Y.)), weighing 25 to 30 g, were used. All animals were group-housed in a standard colony room with a 12:12 light/dark cycle (lights on at 6:00 am) for at least one week prior to testing. Food and water were provided ad libitum. Animals were weighed, tail marked, and randomly assigned to treatment groups before testing.
For each test, sixty minutes after the injection of vehicle or test compound, or 30 min after injection of the positive control, buspirone, mice were individually placed into test cages containing 1.5 in of Aspen bedding (PWI brand) and two rows of 10 marbles (20 marbles per test cage total). Filter tops were used to cover each test cage. Thirty minutes later, mice were removed from test cages and returned to their home cages. The number of fully visible marbles (less than ⅔ covered with bedding) were counted and subtracted from 20 to arrive at the number of marbles buried. Twelve mice were tested per group.
Testing included multiple tests with each test performed to evaluate buspirone hydrochloride (BUS; Sigma Aldrich) (positive control) and/or a compound of formula (I). […] Doses were measured in mg drug (salt form) per kg body weight. Data was analyzed using one-way ANOVA with post-hoc Dunnett's test.

[2] = target: mGluR5 (allosteric site, [3H]MPEP) (Homo sapiens, UniProt P41594); experiment: [3H]MPEP radioligand filtration binding assay on membrane homogenates; details: 5 nM [3H]MPEP; Ki from IC50 by Cheng and Prusoff equation
Sequence of mGluR5 (allosteric site, [3H]MPEP) (P41594 21-1212): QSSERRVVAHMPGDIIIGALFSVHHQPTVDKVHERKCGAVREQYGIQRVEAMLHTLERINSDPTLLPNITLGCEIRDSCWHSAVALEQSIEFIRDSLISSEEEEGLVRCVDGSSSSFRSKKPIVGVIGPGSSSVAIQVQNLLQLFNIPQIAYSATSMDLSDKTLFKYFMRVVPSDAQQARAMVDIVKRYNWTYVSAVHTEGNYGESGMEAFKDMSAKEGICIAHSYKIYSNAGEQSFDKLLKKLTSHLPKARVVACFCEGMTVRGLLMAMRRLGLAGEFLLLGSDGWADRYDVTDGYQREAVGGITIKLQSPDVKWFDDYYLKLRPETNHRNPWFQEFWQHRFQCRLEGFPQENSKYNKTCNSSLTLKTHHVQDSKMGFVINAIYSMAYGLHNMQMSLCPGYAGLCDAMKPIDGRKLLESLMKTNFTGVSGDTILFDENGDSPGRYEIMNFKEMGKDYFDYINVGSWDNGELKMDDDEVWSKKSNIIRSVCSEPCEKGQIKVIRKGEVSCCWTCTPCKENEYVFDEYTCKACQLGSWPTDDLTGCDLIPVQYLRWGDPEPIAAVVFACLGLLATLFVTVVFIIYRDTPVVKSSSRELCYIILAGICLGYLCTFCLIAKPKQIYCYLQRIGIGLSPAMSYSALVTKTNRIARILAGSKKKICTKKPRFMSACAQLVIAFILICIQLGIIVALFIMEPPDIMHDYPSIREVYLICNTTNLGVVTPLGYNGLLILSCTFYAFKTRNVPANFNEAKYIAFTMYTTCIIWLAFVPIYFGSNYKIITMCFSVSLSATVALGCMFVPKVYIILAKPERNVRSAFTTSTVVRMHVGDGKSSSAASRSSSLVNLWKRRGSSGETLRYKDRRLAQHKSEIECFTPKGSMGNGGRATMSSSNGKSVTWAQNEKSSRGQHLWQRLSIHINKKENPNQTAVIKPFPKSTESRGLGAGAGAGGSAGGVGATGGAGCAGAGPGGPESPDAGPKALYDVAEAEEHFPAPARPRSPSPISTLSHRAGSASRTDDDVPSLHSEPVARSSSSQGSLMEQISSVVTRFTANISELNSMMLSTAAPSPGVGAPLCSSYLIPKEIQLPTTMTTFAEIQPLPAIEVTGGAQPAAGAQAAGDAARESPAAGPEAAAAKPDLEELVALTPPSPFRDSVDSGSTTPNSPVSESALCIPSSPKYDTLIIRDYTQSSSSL
Method: Binding assays were performed as described in [J. A. O'Brien et al. Mol. Pharmacol., 2003, 64, 731-740] with slight modifications. Briefly, after thawing, the membrane homogenates were resuspended in 50 mM Tris-HCl, 0.9% NaCl binding buffer at pH 7.4 to a final assay concentration of 40 μg protein/well for [^3H]2-methyl-6-phenylethynyl-pyridine ([^3H] MPEP) (American Radiolabeled Chemicals, Inc., St. Louis, Mo.) filtration binding. Incubations included 5 nM [^3H] MPEP, membranes and either buffer or varying concentrations of compound. Samples were incubated for 60 min at room temperature with shaking. Non-specific binding was defined with 10 μM MPEP. After incubation, samples were filtered over a GF/C filter (presoaked in 0.25% polyethyleneimine (PEI)) and then washed 4 times using a Tomtec® Harvester 96® Mach III cell harvester (Tomtec, Hamden, Conn.) with 0.5 mL ice-cold 50 mM Tris-HCl (pH 7.4).
IC50 values were derived from the inhibition curve and Ki values were calculated according to the Cheng and Prusoff equation of Ki=IC50/(1+[L]/Kd) described in [Y. Cheng and W. H. Prusoff Biochem. Pharmacol. 1973, 22, 3099-3108] where [L] is the concentration of radioligand and Kd is its dissociation constant at the receptor, derived from the saturation isotherm.

[3] = test system: Male Rj: Wistar (Hans) rats; experiment: Vogel Conflict Test (punished drinking); type: in vivo; details: rat
Method: The “Vogel Conflict Test” as described by Vogel et al. [Psychopharmacologia, 1971, 21, 1-7] was used to detect anxiolytic activity of a compound of formula (I) because anxiolytics increase punished drinking. In the test, rats were deprived of water for approximately 48 hours and were then placed individually into a transparent Plexiglas® enclosure (15×32×34 cm) with a floor consisting of stainless steel bars (0.4 cm) spaced 1 cm apart. The back wall of the enclosure was made of opaque Plexiglas® thereby concealing the observer from the experimental animal. In the center of the opposite wall, 5 cm above the floor, a metal water spout protruded into the cage and was connected to one pole of a shock generator (Apelex: Type 011346). The other pole of the shock generator was connected to the metal grid floor.
The rat was left to explore until it found the water spout. Then, every time it drank, it received a slight electric shock (1.7 mA, 1 s) 2 seconds after it started lapping. The number of punished drinks was counted during a 3 minute test. The test was performed blind with 10 rats per group. Testing included multiple tests using reference compounds and a compound of formula (I) that were prepared and administered as described below in the LES test. Male Rj: Wistar (Hans) rats as described therein were used after acclimatization conditions were achieved. Data was analyzed by comparing treated groups with appropriate controls using unpaired Student's t tests.

[4] = target: T2, human metabotropic glutamate receptor 5 (hmGluR5) (Homo sapiens, UniProt P41594); experiment: Calcium mobilization (FLIPR) assay for negative allosteric modulation, EC80 glutamate, hmGluR5 in HEK 293; type: cell-based; details: HEK293; hmGluR5, inhibition of EC80 glutamate response; read-out: FLIPR maximum inhibition
T2 construct: expressed in transfected cells
T2 sequence (P41594 21-1212): as above
Summary of the method: as §1

C57BL/6NTac mice = details: three weeks treatment, cited from earlier work

T1 sequence (P31424 21-1203): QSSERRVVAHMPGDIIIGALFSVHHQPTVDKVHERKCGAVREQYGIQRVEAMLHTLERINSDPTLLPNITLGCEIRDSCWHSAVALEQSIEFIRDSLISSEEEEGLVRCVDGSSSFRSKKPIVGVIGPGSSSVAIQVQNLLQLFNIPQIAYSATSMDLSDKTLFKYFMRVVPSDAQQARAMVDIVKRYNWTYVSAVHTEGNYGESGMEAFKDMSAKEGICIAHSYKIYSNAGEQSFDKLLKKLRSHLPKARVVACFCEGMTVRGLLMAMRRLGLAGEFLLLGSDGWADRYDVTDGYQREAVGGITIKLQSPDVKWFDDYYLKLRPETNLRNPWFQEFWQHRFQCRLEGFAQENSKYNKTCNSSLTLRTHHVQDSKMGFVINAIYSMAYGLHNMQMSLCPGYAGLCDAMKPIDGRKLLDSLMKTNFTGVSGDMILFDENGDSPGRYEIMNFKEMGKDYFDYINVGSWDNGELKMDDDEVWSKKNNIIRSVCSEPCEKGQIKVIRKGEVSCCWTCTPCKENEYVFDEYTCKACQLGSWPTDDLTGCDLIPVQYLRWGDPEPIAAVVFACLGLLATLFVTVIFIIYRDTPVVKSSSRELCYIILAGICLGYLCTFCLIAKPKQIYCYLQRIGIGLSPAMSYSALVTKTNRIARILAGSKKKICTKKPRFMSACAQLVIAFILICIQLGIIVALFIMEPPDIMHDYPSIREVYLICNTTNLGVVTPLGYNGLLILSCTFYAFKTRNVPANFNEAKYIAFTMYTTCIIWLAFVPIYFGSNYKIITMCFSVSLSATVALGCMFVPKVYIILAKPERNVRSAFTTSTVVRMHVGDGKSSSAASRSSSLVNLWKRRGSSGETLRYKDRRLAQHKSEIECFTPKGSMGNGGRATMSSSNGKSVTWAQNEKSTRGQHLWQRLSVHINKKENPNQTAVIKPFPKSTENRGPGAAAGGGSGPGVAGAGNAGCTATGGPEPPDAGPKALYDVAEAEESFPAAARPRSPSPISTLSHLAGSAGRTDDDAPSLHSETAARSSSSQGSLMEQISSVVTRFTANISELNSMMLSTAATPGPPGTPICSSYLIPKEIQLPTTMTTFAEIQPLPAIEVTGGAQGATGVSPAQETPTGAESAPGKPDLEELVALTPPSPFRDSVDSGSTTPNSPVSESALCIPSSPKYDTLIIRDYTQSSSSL

| Structure (SMILES) | Emax [1] [%] | Ki [2] [nM] | Emax [4] [%] | activity in the Vogel Conflict Test ([3]; 30 mpk (p.o.)) | activity in the Vogel Conflict Test ([3]; 10 mpk (p.o.)) | also measured |
| --- | --- | --- | --- | --- | --- | --- |
| O=C(N[C@@H]1CCC[C@@]2(CCN(c3cccc(F)c3)C2=O)C1)c1ccccn1 [Example 25, Pyridine-2-carboxylic acid [(5R,7R)-2-(3-fluoro-phenyl)-1-oxo-2-aza-spiro [4.5]dec-7-yl]-amide] | 81 to 99 | 130 | – | significant activity | – | – |
| Cc1nccc(N2CC[C@@]3(CCC[C@@H](NC(=O)c4cccc(F)c4)C3)C2=O)n1 [Example 147, 3-Fluoro-N-[(5R,7R)-2-(2-methyl-pyrimidin-4-yl)-1-oxo-2-aza-spiro[4.5]dec-7-yl]-benzamide] | – | – | 47 to 93 | significant activity | significant activity | activity in the Vogel Conflict Test ([3]; 3 mpk (p.o.)): significant activity |
| CNCCC(Oc1ccc(C(F)(F)F)cc1)c1ccccc1 (centres unmarked) [fluoxetine] | – | – | – | – | – | effect on anxiety- and depression-like effects of seven weeks corticosterone in the OF, NSF and FST (C57BL/6NTac mice; 18 mg/kg/day ip): reversed the anxiety- and depression-like effects |
| CN(C)CCCN1c2ccccc2CCc2ccccc21 [imipramine] | – | – | – | – | – | effect on anxiety- and depression-like effects of seven weeks corticosterone in the OF, NSF and FST (C57BL/6NTac mice; 40 mg/kg/day ip): reversed the anxiety- and depression-like effects |

Now from value to molecule, other results behind:

| Emax [1] [%] | Ki [2] [nM] | Emax [4] [%] | Structure (SMILES) | activity in the Vogel Conflict Test ([3]; 30 mpk (p.o.)) | activity in the Vogel Conflict Test ([3]; 10 mpk (p.o.)) | also measured |
| --- | --- | --- | --- | --- | --- | --- |
| 81 to 99 | 95 | – | O=C(N[C@@H]1CCC[C@@]2(CCN(c3cccc(Cl)c3)C2=O)C1)c1ccccn1 (single isomer, unassigned) [Example 5] | – | – | in vivo anxiolytic effect in mouse marble burying (male CD1 mice): statistically significant in vivo anxiolytic effect |
| – | – | 73 to 95 | Cc1nccc(C(=O)N[C@@H]2CCC[C@@]3(CCN(c4cc(F)cc(F)c4)C3=O)C2)n1 [Example 82, 2-Methyl-pyrimidine-4-carboxylic acid [(5R,7R)-2-(3,5-difluoro-phenyl)-1-oxo-2-aza-spiro[4.5]dec-7-yl]-amide] | – | significant activity | – |
